# Reference: article PMC6748952, “Identification, Functional Characterization, and Pharmacological Analysis of Two Sulfakinin Receptors in the Medically-Important Insect Rhodnius prolixus” (Scientific Reports, 2019)
# Entries after “also recorded” stand apart in the source; their conditions may differ. Where no end group is shown, it is not given here.
# Tests used:
# Rhopr-SKR-1 [1] = test: Second messenger pathway assay (PLC inhibitor U73122 or EGTA), Rhopr-SKR-1 in HEK293/CNG cells; type: cell-based, Rhodnius prolixus; conditions: for EC50: 3 replicates, read-out: EC50, luminescence response; for luminescence response: with 10 μM U73122 (10 minutes incubation); for luminescence response of control agents: cells expressing Rhopr-SKR-1, confirms functional CNG channels (Fig. S4)
# Experimental: (§1) To test whether cAMP and/or Ca^2+ are the second messengers for Rhopr-SKR-1 and Rhopr-SKR-2, HEK293/CNG cells were transfected with each receptor, as previously mentioned, then split into cells that were suspended in calcium-free DMEM with the extracellular calcium chelator EGTA (10 μM) or cells treated with the PLC inhibitor U73122 (10 μM) (Sigma Aldrich, Oakville, ON, Canada). […] HEK293/CNG cells with receptors that work via the Ca^2+ pathway would be unable to evoke luminescence in the presence of U73122. The modified CNG channel in HEK293/CNG causes extracellular Ca^2+ to flow into the cell upon an increase in cytoplasmic cAMP levels. Receptors that solely work through the cAMP pathway would be unable to produce a response in calcium-free media with EGTA. Moreover, receptors that work via both Ca^2+ and cAMP would elicit a response in the presence of either U73122 or EGTA in calcium-free media.
# (§2) HEK293/CNG cells were used via the same protocol as previously stated. Luminescence was measured in 5-second intervals for a total of 30 seconds. In the first set of experiments, the transfected cells were incubated in 10 μM of U73122 for 10 minutes prior to measuring luminescence in response to the addition of sulfated Rhopr-SK-1 or Rhopr-SK-2. To confirm the viability of the utilized cells, media in 1.5% Triton X-100 served as a positive control. In the second set of experiments, cells were suspended in calcium-free DMEM (Thermo Fisher Scientific, Waltham, MA, USA) with 10 μM of the extracellular calcium chelator EGTA. Here, luminescence was measured in response to sulfated Rhopr-SK-1 or Rhopr-SK-2 in calcium-free DMEM in the presence of EGTA. A batch of cells that was also pre-incubated in calcium-free DMEM with EGTA were then washed, incubated in regular DMEM, and then tested in response to sulfated Rhopr-SK-1 and […]. Forskolin, which is a stimulator of adenylate cyclase, and the cAMP analog dibutyryl cAMP (dbcAMP) were utilized as controls to confirm the expression of functional CNG channels in the HEK293/CNG cells. ATP served as a positive control. GraphPad Prism version 8.00 (https://www.graphpad.com) was used to analyze the bioluminescence results.
# Rhopr-SKR-2 [2] = test: Second messenger pathway assay (PLC inhibitor U73122 or EGTA), Rhopr-SKR-2 in HEK293/CNG cells; type: cell-based, Rhodnius prolixus; conditions: for EC50: 3 replicates, read-out: EC50, luminescence response; for luminescence response: with 10 μM U73122 (10 minutes incubation)
# Experimental: as §1, §2
# Rhopr-SKR-1 [3] = test: Functional receptor assay (aequorin bioluminescence), Rhopr-SKR-1 transiently expressed in HEK293/CNG cells; type: cell-based, Rhodnius prolixus; conditions: for EC50 / luminescence response / activation (in words): HEK293/CNG, first 5-second interval, 3 replicates; for EC50: aequorin luminescence, coelenterazine h 5 μM, read-out: EC50, luminescence response
# Experimental: (§3) An aequorin luminescence assay was utilized in order to measure Ca^2+ signaling in HEK293/CNG cells stably expressing a modified cyclic nucleotide-gated (CNG) channel. The cells were grown in Dulbecco’s Modified Eagle Medium Nutrient Mixture F12-Ham (DMEM/F-12) (Thermo Fisher Scientific, Waltham, MA, USA), with 1% penicillin/streptomycin, 10% fetal bovine serum (FBS), and 100 μg/mL G418 (Geneticin). The HEK293/CNG cells were consistently grown in vented T75 flasks and inclubated at 37 °C in 5% CO2. After reaching approximately 95% confluency, the mammalian cells were transiently co-transfected with the pIRES2-ZsGreen1 expression vector (containing Rhopr-SKR-1 or Rhopr-SKR-2) and the cytoplasmic luminescent reporter aequorin via X-tremeGENE^TM HP DNA Transfection Reagent (Roche Applied Science, Penzberg, Germany). Transfections were performed at a 2:1 ratio for the transfection reagent to the expression vectors. Cells transiently transfected with empty pIRES2-ZsGreen1 expression vectors served as a negative control. The cells were then incubated at 37 °C in 5% CO2 for 72 hours prior to performing the bioluminescence assay.
# (§4) The bioluminescence assay was performed as previously described. At 72 hours post-transfection, the HEK293/CNG cells were harvested from the T75 flasks using a PBS with ethylenediaminetetraacetic acid (EDTA) solution then suspended in a bovine serum albumin (BSA) media (DMEM/F-12 with 1% penicillin/streptomycin and 1% BSA). Prior to the functional assay, the cells were incubated in coelenterazine h (Promega, Madison, WI, USA) to a 5 μM final concentration, and then incubated for 4 hours whilst stirring in the dark. The cells were then diluted 8-fold via BSA media. Rhopr-SK-1 and Rhopr-SK-2 (as well as nonsulfated Rhopr-SK-1) were prepared in BSA media then plated in duplicates on 96-well plates, with 50 μL of the cells then automatically injected into each of these wells via a Perkin Elmer Wallac 1420 Victor2 plate reader (Perkin Elmer, San Diego, CA, USA). The reader was used to measure luminescence response in consecutive five-second intervals (15 seconds in total). An extended Rhopr-FMRFamide (GNDNFMRFamide), tachykinin (Rhopr-TK-2), and Rhopr-Kinin-2 were used as controls to test for specificity. ATP was used as a positive control. HEK293/CNG cells transfected with empty pIRES2-ZsGreen1 vectors served as negative controls.
# HEK293/CNG cells = test: Negative control: HEK293/CNG cells transfected with empty pIRES2-ZsGreen1 plasmids; type: cell-based, human; conditions: empty pIRES2-ZsGreen1 (not shown)
# Experimental: as §3, with “Cells transiently transfected with empty pIRES2-ZsGreen1 expression vectors served as a negative control. The cells were then incubated at 37 °C in 5% CO2 for 72 hours prior to performing the bioluminescence assay.” left out
# The bioluminescence assay was performed as previously described. […] Rhopr-SK-1 and Rhopr-SK-2 (as well as nonsulfated Rhopr-SK-1) were prepared in BSA media then plated in duplicates on 96-well plates, with 50 μL of the cells then automatically injected into each of these wells via a Perkin Elmer Wallac 1420 Victor2 plate reader (Perkin Elmer, San Diego, CA, USA). The reader was used to measure luminescence response in consecutive five-second intervals (15 seconds in total). […]
# Rhopr-SKR-2 [4] = test: Functional receptor assay (aequorin bioluminescence), Rhopr-SKR-2 transiently expressed in HEK293/CNG cells; type: cell-based, Rhodnius prolixus; conditions: for EC50 / luminescence response / activation (in words): HEK293/CNG, first 5-second interval, 3 replicates; for EC50: aequorin luminescence, coelenterazine h 5 μM, read-out: EC50, luminescence response
# Experimental: as §3, §4
# R. prolixus = conditions: peptide injection; cited from earlier work
# From the text: Silencing of SKs via RNAi has been linked to stimulation in the intake of food in G. bimaculatus[28] and T. castaneum. Additionally, RNAi-induced silencing of each of the transcripts for the two SKRs in T. castaneum led an increase of food intake by approximately 20% for SKR1[25] and 50% for SKR2[29]. […] In the present study, the transcript coding for Rhopr-SK-1 and Rhopr-SK-2 as well as the ...
# PLC pathway = conditions: HEK293/CNG cell line; cited from earlier work
# Experimental: To test whether cAMP and/or Ca^2+ are the second messengers for Rhopr-SKR-1 and Rhopr-SKR-2, HEK293/CNG cells were transfected with each receptor, as previously mentioned, then split into cells that were suspended in calcium-free DMEM with the extracellular calcium chelator EGTA (10 μM) or cells treated with the PLC inhibitor U73122 (10 μM) (Sigma Aldrich, Oakville, ON, Canada). […] HEK293/CNG cells with receptors that work via the Ca^2+ pathway would be unable to evoke luminescence in the pre ...
# [5] = Rhopr-SKR-1, absence of EGTA, media containing calcium
# [6] = Rhopr-SKR-1, absence of U73122, media containing calcium
# [7] = Rhopr-SKR-1, presence of EGTA (10 μM), calcium-free DMEM
# [8] = absence of EGTA, media containing calcium
# [9] = absence of U73122, media containing calcium
# [10] = presence of EGTA (10 μM), calcium-free DMEM
compound,measurement,setting,value
"Nc1ncnc2c1ncn2[C@@H]1O[C@H](COP(=O)(O)OP(=O)(O)OP(=O)(O)O)[C@@H](O)[C@H]1O [ATP, reference compound]","bioluminescent response of ATP, positive control","Rhopr-SKR-1 [1]; Rhopr-SKR-1, all conditions (not shown)",elicited the expected positive bioluminescent response
same,"bioluminescent response of ATP, positive control",Rhopr-SKR-2 [2]; all conditions (not shown),elicited the expected positive bioluminescent response
"pQFNEY(SO3H)GHMRFamide [Rhopr-SK-1, native R. prolixus sulfakinin 1, custom synthesized]",potency of Rhopr-SK-1 relative to Rhopr-SK-2,Rhopr-SKR-1 [3],one order of magnitude more potent than Rhopr-SK-2
same,EC50,Rhopr-SKR-1 [3],0.532 nM
same,luminescence response / activation (in words),Rhopr-SKR-1 [3],"activated by sulfated Rhopr-SK-1 and sulfated Rhopr-SK-2 in a dose-dependent manner; also recorded: full, and potent ligand"
same,EC50,Rhopr-SKR-1 [1]; [5],0.294 nM
same,EC50,Rhopr-SKR-1 [1]; [6],0.317 nM
same,EC50,Rhopr-SKR-1 [1]; [7],0.44 nM
same,luminescence response,Rhopr-SKR-1 [1]; Rhopr-SKR-1,unable to elicit a response
same,luminescence in empty-vector cells,HEK293/CNG cells,no luminescence
same,potency of Rhopr-SK-1 relative to Rhopr-SK-2,Rhopr-SKR-2 [4],similar
same,EC50,Rhopr-SKR-2 [4],0.144 nM
same,luminescence response / activation (in words),Rhopr-SKR-2 [4],"activated by sulfated Rhopr-SK-1 and sulfated Rhopr-SK-2 in a dose-dependent manner; also recorded: full, and potent ligand"
same,EC50,Rhopr-SKR-2 [2]; [8],0.214 nM
same,EC50,Rhopr-SKR-2 [2]; [9],0.103 nM
same,EC50,Rhopr-SKR-2 [2]; [10],0.344 nM
same,luminescence response,Rhopr-SKR-2 [2],unable to elicit a response
same,size of blood meal,R. prolixus,took smaller blood meals
"CCCC(=O)Nc1ncnc2c1ncn2[C@@H]1O[C@@H]2COP(=O)(O)O[C@H]2[C@H]1OC(=O)CCC [dibutyryl-cAMP, reference compound]",luminescence response of control agents,Rhopr-SKR-1 [1],elicited luminescence responses
"AKFSSWG-NH2 [Rhopr-Kinin-2, R. prolixus kinin, control for specificity, reference compound]",luminescence response / activation (in words),Rhopr-SKR-1 [3],little to no response
same,luminescence response / activation (in words),Rhopr-SKR-2 [4],little to no response
"GGSDEKFDDY(SO3H)GYMRFamide [Rhopr-SK-2, native R. prolixus sulfakinin 2, custom synthesized]",EC50,Rhopr-SKR-1 [3],8.69 nM
same,luminescence response / activation (in words),Rhopr-SKR-1 [3],"activated by sulfated Rhopr-SK-1 and sulfated Rhopr-SK-2 in a dose-dependent manner; also recorded: partial, though potent ligand"
same,EC50,Rhopr-SKR-1 [1]; [5],6.86 nM
same,EC50,Rhopr-SKR-1 [1]; [6],13.3 nM
same,EC50,Rhopr-SKR-1 [1]; [7],30.2 nM
same,luminescence response,Rhopr-SKR-1 [1]; Rhopr-SKR-1,unable to elicit a response
same,luminescence in empty-vector cells,HEK293/CNG cells,no luminescence
same,luminescence of Rhopr-SK-2 vs Rhopr-SK-1,"Rhopr-SKR-2 [4]; 1 × 10^−6 M, one way ANOVA, Tukey, ***P < 0.001, 3 replicates",lower
same,EC50,Rhopr-SKR-2 [4],0.101 nM
same,luminescence response / activation (in words),Rhopr-SKR-2 [4],"activated by sulfated Rhopr-SK-1 and sulfated Rhopr-SK-2 in a dose-dependent manner; also recorded: partial, though potent ligand"
same,EC50,Rhopr-SKR-2 [2]; [8],0.134 nM
same,EC50,Rhopr-SKR-2 [2]; [9],0.121 nM
same,EC50,Rhopr-SKR-2 [2]; [10],0.314 nM
same,luminescence response,Rhopr-SKR-2 [2],unable to elicit a response
"GNDNFMRF-NH2 [extended Rhopr-FMRFamide, control for specificity, reference compound]",luminescence response / activation (in words),Rhopr-SKR-1 [3],little to no response
same,luminescence response / activation (in words),Rhopr-SKR-2 [4],little to no response
"O=C(O)CN(CCOCCOCCN(CC(=O)O)CC(=O)O)CC(=O)O [EGTA, ethylene glycol-bis(β-aminoethyl ether)-N,N,N′,N′-tetraacetic acid, reference compound]",effect of EGTA on luminescence induced by Rhopr-SK-1 and Rhopr-SK-2,"Rhopr-SKR-1 [1]; Rhopr-SKR-1, calcium-free media containing EGTA (10 μM)",does not abolish the luminescence induced by Rhopr-SK-1 and Rhopr-SK-2
same,effect of EGTA on luminescence induced by Rhopr-SK-1 and Rhopr-SK-2,Rhopr-SKR-2 [2]; calcium-free media containing EGTA (10 μM),does not abolish the luminescence induced by Rhopr-SK-1 and Rhopr-SK-2
"C=C[C@@]1(C)CC(=O)[C@]2(O)[C@@]3(C)[C@@H](O)CCC(C)(C)[C@@H]3[C@H](O)[C@H](OC(C)=O)[C@@]2(C)O1 [forskolin, reference compound]",luminescence response of control agents,Rhopr-SKR-1 [1],elicited luminescence responses
"COc1ccc2c(c1)CC[C@@H]1[C@@H]2CC[C@]2(C)[C@@H](NCCCCCCN3C(=O)C=CC3=O)CC[C@@H]12 [U73122, reference compound]",effect of U73122 on luminescence response to Rhopr-SK-1 and Rhopr-SK-2,"Rhopr-SKR-1 [1]; Rhopr-SKR-1, 10 μM",abolished the luminescence response to Rhopr-SK-1 and Rhopr-SK-2
same,inhibition of PLC pathway,PLC pathway,successfully inhibit the PLC pathway
same,effect of U73122 on luminescence response to Rhopr-SK-1 and Rhopr-SK-2,Rhopr-SKR-2 [2]; 10 μM,abolished the luminescence response to Rhopr-SK-1 and Rhopr-SK-2
"APSTMGFQGVR-NH2 [Rhopr-TK-2, R. prolixus tachykinin, control for specificity, reference compound]",luminescence response / activation (in words),Rhopr-SKR-1 [3],little to no response
same,luminescence response / activation (in words),Rhopr-SKR-2 [4],little to no response
